Assay [1] concerns the target T1, E. coli DnaE (DNA polymerase III α-subunit from Escherichia coli) (Escherichia coli, UniProt P10443).
T1 construct: EcDnaE (E. coli DnaE residues 1-1160); 6xHis (N); made in house; host or cells: E. coli BL21(DE3)
Put plainly: In vitro DnaE single enzyme assay (E. coli). The class given is biochemical. The method in brief: (§1)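 3H-dTTP (0.011 mM) incorporation into DNase I-activated calf thymus DNA, alongside the other three dNTPs at 0.025 mM, measured by filter counting after TCA precipitation. Reactions ran 30 min at 30° C., started with purified N-His DnaE: 0.8 μg/ml for E. coli, 0.05 μg/ml for S. aureus.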

The target of assay [2] is T2, S. aureus DnaE (DNA polymerase III α-subunit homolog from Staphylococcus aureus) (Staphylococcus aureus, UniProt Q5HF71).
T2 construct: SaDnaE (S. aureus DnaE residues 1-1065); 6xHis (N); made in house; host or cells: E. coli BL21-AI
T2 sequence (Q5HF71 1-1065): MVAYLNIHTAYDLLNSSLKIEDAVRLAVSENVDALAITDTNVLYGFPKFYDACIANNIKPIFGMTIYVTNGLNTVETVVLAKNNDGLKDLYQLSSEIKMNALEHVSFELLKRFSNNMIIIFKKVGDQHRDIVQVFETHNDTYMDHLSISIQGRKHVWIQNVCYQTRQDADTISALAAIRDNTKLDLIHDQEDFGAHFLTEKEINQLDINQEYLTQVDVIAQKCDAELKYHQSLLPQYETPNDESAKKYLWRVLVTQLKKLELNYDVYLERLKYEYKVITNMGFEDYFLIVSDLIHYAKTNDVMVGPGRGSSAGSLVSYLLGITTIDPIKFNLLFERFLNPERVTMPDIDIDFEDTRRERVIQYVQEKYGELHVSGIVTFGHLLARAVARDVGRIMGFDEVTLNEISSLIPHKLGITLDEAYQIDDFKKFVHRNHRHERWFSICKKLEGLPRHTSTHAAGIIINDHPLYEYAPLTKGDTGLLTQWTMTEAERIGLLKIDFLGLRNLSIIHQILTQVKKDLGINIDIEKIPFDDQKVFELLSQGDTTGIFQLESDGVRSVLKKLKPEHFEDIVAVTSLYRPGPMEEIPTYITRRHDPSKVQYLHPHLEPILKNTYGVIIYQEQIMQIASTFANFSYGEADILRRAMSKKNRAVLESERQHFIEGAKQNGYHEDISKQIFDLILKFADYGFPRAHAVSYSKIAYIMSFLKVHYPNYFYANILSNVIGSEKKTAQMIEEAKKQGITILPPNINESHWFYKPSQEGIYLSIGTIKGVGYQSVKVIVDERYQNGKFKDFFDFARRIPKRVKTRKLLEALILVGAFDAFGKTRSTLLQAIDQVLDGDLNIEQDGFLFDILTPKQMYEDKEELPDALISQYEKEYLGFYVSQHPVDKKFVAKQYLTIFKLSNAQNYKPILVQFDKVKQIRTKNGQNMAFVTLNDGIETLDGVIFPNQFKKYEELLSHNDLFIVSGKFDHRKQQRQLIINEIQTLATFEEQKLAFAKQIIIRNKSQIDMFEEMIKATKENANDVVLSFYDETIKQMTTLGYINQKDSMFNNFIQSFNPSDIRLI
Put plainly: biochemical. It counts as biochemical. As to conditions: S. aureus DnaE IC50. The method in brief:
as §1

The test system of assay [3] is Streptococcus pneumoniae MB6357 (CL 2883). Briefly: Nargenicin antibacterial assay (MIC), S. pneumoniae. The class given is cell-based. To be noted: Streptococcus pneumoniae, read-out: S. pneumoniae MB2883 (MIC), Isosensitest broth; * = some reduction of growth versus control at […].
In assay [4] the test system is Staphylococcus aureus MB6266 (MRSA COL). Briefly: Nargenicin antibacterial assay (MIC), S. aureus. It counts as cell-based. To be noted: Staphylococcus aureus, MRSA, read-out: S. aureus COL (MIC), MHII broth + 50% human serum; * = some reduction of growth versus control at […].
Assay [5] has as its system Escherichia coli MB5747 (LS 883, tolC). Briefly: microbe, parasite or virus in culture. It counts as cell-based. As to conditions: Escherichia coli, read-out: E. coli LS883 tolC (MIC), MHII broth; * = some reduction of growth versus control at […].
Assay [6] deals with Pseudomonas aeruginosa MB5890 (CB1101, efflux-deleted). Briefly: microbe, parasite or virus in culture. To be noted: Pseudomonas aeruginosa, read-out: P. aeruginosa MB5890 efflux-del (MIC), MHII broth; * = some reduction of growth versus control at […]. It counts as cell-based.
Setting [7] is: read-out: E. coli DnaE IC50 (converted).

≈ marks a conversion by molar mass, not a printed value. Read-outs that look alike come from different tables or passages of the source. Where only a bound is given, the exact number is not on record here.

T1 sequence (P10443 whole entry, the tested form may be a part): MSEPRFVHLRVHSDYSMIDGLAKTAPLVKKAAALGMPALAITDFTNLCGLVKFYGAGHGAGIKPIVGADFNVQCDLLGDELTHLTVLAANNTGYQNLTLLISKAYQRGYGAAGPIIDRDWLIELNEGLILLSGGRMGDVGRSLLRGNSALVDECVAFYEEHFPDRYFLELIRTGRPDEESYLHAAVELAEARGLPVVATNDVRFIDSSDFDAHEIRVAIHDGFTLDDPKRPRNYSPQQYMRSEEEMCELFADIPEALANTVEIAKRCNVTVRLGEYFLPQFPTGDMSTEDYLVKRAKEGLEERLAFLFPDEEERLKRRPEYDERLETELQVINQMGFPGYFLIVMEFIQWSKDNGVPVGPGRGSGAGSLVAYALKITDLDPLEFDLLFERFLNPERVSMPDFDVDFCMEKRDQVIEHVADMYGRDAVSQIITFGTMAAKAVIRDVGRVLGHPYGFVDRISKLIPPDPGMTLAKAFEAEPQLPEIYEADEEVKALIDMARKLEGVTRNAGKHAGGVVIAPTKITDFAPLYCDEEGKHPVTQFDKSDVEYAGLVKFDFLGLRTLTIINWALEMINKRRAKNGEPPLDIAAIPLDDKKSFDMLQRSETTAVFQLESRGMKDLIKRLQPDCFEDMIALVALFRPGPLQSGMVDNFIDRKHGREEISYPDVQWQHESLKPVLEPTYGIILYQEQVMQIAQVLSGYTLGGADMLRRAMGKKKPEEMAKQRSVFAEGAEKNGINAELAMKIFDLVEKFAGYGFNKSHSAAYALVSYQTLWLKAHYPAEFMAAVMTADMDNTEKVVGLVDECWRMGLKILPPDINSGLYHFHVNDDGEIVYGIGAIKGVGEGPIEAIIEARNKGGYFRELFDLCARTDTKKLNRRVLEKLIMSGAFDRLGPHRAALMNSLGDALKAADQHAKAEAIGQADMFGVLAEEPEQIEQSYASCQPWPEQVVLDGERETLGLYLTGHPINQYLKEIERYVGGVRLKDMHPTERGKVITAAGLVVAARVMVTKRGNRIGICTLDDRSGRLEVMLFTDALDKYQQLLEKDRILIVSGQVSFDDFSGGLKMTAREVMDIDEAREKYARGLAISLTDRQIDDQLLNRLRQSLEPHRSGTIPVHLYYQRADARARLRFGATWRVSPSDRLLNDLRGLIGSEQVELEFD

What is called IC50 is the concentration needed to halve the response being measured. Take `CO[C@H]1CC2C=C[C@H]3[C@H]4O[C@]2(/C(C)=C/[C@@H](C)[C@@H]([C@@H](C)O)OC1=O)[C@@H]3[C@H](OC(=O)NS(=O)(=O)c1ccccc1)[C@@H](C)[C@H]4OC(=O)c1ccc[nH]1` (stereo partly drawn) [Example 40, (3R,4S,7S,10aR,11R,12R,13R,14R,14aS,14bS,E)-4-((R)-1-hydroxyethyl)-7-methoxy-1,3,13-trimethyl-6-oxo-14-(((phenylsulfonyl)carbamoyl)oxy)-3,4,6,7,8,8a,10a,11,12,13,14,14a-dodecahydro-11,14b-epoxynaphtho[2,1-e]oxecin-12-yl 1H-pyrrole-2-carboxylate]: the IC50 was above 143 µM in assay [1] (setting [7]) and 1.57 µM in assay [2]. Also, the MIC in assay [3], in assay [4], in assay [5] and in assay [6] was above 128 µg/mL in each case.

Take `CO[C@H]1C[C@H]2C=C[C@H]3[C@H]4O[C@]2(/C(C)=C/[C@@H](C)[C@@H]([C@@H](C)O)OC1=O)[C@@H]3[C@H](O)[C@@H](C)[C@H]4OC(=O)c1[nH]c(Br)c(Br)c1Br` [Example 41, (3R,4S,7S,8aS,10aR,11R,12R,13R,14R,14aS,14bS,E)-14-hydroxy-4-((R)-1-hydroxyethyl)-7-methoxy-1,3,13-trimethyl-6-oxo-3,4,6,7,8,8a,10a,11,12,13,14,14a-dodecahydro-11,14b-epoxynaphtho[2,1-e]oxecin-12-yl3,4,5-tribromo-1H-pyrrole-2-carboxylate]: the results for the IC50 in assay [1] (E. coli DnaE IC50) and in assay [2] were 79.8 µM and 4.12 µM, respectively. Moreover, the MIC in assay [3] was 8 µg/mL (≈ 10.6 µM); in assay [4], above 128 µg/mL; in assay [5], above 128 µg/mL; in assay [6], above 128 µg/mL.

For the molecule `CO[C@H]1CC2C=C[C@H]3[C@H]4O[C@]2(/C(C)=C/[C@@H](C)[C@@H](C(C)O)OC1=O)[C@@H]3[C@H](O)[C@@H](C)[C@H]4OC(=O)c1[nH]c(I)c(I)c1I` (stereo partly drawn) [Example 42], the half-inhibitory concentration (IC50) in assay [1] (setting [7]) is 44.8 µM; in assay [2], 4.48 µM. The MIC in assay [3] was 1 µg/mL (≈ 1.12 µM); in assay [4], 32 µg/mL; in assay [5] it was above 128 µg/mL; in assay [6], above 128 µg/mL.

In the case of `CO[C@H]1C[C@H]2C=C[C@H]3[C@H]4O[C@]2(/C(C)=C/[C@@H](C)[C@@H]([C@@H](C)O)OC1=O)[C@@H]3[C@H](O)[C@@H](C)[C@H]4OC(=O)c1ccc(Br)[nH]1` [Example 43], the IC50 in assay [1] (setting [7]) is 75.7 µM; in assay [2], 0.202 µM. In addition, the MIC in assay [3] was 128 µg/mL (≈ 215 µM); in assay [4], 64 µg/mL; in assay [5], 8 µg/mL (≈ 13.5 µM); in assay [6], above 128 µg/mL.

On to `CO[C@H]1C[C@H]2C=C[C@H]3[C@H]4O[C@]2(/C(C)=C/[C@@H](C)[C@@H]([C@@H](C)O)OC1=O)[C@@H]3[C@H](O)[C@@H](C)[C@H]4OC(=O)c1ccc(Cl)[nH]1` [Example 44], for which the concentration for half-maximal inhibition (IC50) in assay [1] (setting [7]) was 49.1 µM; in assay [2], below 0.0109 µM. For the same molecule, the MIC in assay [3] stood at 64 µg/mL (≈ 116 µM); in assay [4], 16 µg/mL; in assay [5], 8 µg/mL (≈ 14.5 µM); in assay [6], 128 µg/mL (≈ 233 µM).

In the case of `CO[C@H]1C[C@H]2C=C[C@H]3[C@H]4O[C@]2(/C(C)=C/[C@@H](C)[C@@H]([C@@H](C)O)OC1=O)[C@@H]3[C@H](O)[C@@H](C)[C@H]4OC(=O)c1cc(Br)c[nH]1` [Example 46], the half-inhibitory concentration (IC50) in assay [1] (setting [7]) is 16.8 µM; in assay [2] it was 0.0151 µM. In addition, the MIC in assay [3] was 64 µg/mL (≈ 108 µM); in assay [4] it was 8 µg/mL; in assay [5], 2 µg/mL (≈ 3.36 µM); in assay [6], 128 µg/mL (≈ 215 µM).

Regarding `CO[C@H]1C[C@H]2C=C[C@H]3[C@H]4O[C@]2(/C(C)=C/[C@@H](C)COC1=O)[C@@H]3[C@H](O)[C@@H](C)[C@H]4OC(=O)c1ccc[nH]1` [Example 47, (3R,7S,8aS,10aR,11R,12R,13R,14R,14aS,14bS,E)-14-hydroxy-7-methoxy-1,3,13-trimethyl-6-oxo-3,4,6,7,8,8a,10a,11,12,13,14,14a-dodecahydro-11,14b-epoxynaphtho[2,1-e]oxecin-12-yl 1H-pyrrole-2-carboxylate], the figures for the half-inhibitory concentration (IC50) in assay [1] (setting [7]) and in assay [2] were above 212 µM and 0.0891 µM, respectively. Besides, the MIC was above 128 µg/mL in assay [3], 64 µg/mL in assay [4], 16 µg/mL (≈ 33.9 µM) in assay [5] and above 128 µg/mL in assay [6].

Regarding `CO[C@H]1C[C@H]2C=C[C@H]3[C@H]4O[C@]2(/C(C)=C/[C@@H](C)[C@H](C)OC1=O)[C@@H]3[C@H](O)[C@@H](C)[C@H]4OC(=O)c1ccc[nH]1` [Example 48, (3R,4S,7S,8aS,10aR,11R,12R,13R,14R,14aS,14bS,E)-14-hydroxy-7-methoxy-1,3,4,13-tetramethyl-6-oxo-3,4,6,7,8,8a,10a,11,12,13,14,14a-dodecahydro-11,14b-epoxynaphtho[2,1-e]oxecin-12-yl 1H-pyrrole-2-carboxylate], the IC50 was above 206 µM in assay [1] (E. coli DnaE IC50) and 0.165 µM in assay [2]. In addition, the MIC in assay [3] was 128 µg/mL (≈ 264 µM); in assay [4] it was above 128 µg/mL; in assay [5] it was 64 µg/mL (≈ 132 µM); in assay [6], above 128 µg/mL.

In the case of `CC[C@@H]1OC(=O)[C@@H](OC)C[C@H]2C=C[C@H]3[C@H]4O[C@]2(/C(C)=C/[C@H]1C)[C@@H]3[C@H](O)[C@@H](C)[C@H]4OC(=O)c1ccc[nH]1` [Example 49], the IC50 is above 200 µM in assay [1] (setting [7]) and 0.56 µM in assay [2]. Moreover, the MIC was above 128 µg/mL in assay [3], above 128 µg/mL in assay [4], 64 µg/mL (≈ 128 µM) in assay [5] and above 128 µg/mL in assay [6].

As to `CO[C@H]1C[C@H]2C=C[C@H]3[C@H]4O[C@]2(/C(C)=C/[C@@H](C)[C@@H](c2ccccc2)OC1=O)[C@@H]3[C@H](O)[C@@H](C)[C@H]4OC(=O)c1ccc[nH]1` [Example 51], the figures for the IC50 in assay [1] (setting [7]) and in assay [2] were 14.6 µM and below 0.011 µM, respectively. Further, the MIC in assay [3] was above 128 µg/mL; in assay [4], 0.25 µg/mL; in assay [5], above 128 µg/mL; in assay [6] it was above 128 µg/mL.

Consider `CO[C@H]1C[C@H]2C=C[C@H]3[C@H]4O[C@]2(/C(C)=C/[C@@H](C)[C@H](c2ccccc2)OC1=O)[C@@H]3[C@H](O)[C@@H](C)[C@H]4OC(=O)c1ccc[nH]1` [Example 52], for which the values for the concentration for half-maximal inhibition (IC50) in assay [1] (setting [7]) and in assay [2] were 73 µM and 1.1 µM, respectively. The MIC in assay [3], in assay [4], in assay [5] and in assay [6] was above 128 µg/mL each time.

Turning to `CO[C@H]1C[C@H]2C=C[C@H]3[C@H]4O[C@]2(/C(C)=C/[C@H](C)[C@@H](c2ccccc2)OC1=O)[C@@H]3[C@H](O)[C@@H](C)[C@H]4OC(=O)c1ccc[nH]1` [Example 53], the IC50 in assay [1] (setting [7]) is 73 µM; in assay [2], 0.183 µM. For the same molecule, the MIC in assay [3], in assay [4], in assay [5] and in assay [6] was above 128 µg/mL throughout.

For the molecule `C=CC[C@@H]1OC(=O)[C@@H](OC)C[C@H]2C=C[C@H]3[C@H]4O[C@]2(/C(C)=C/[C@H]1C)[C@@H]3[C@H](O)[C@@H](C)[C@H]4OC(=O)c1ccc[nH]1` [Example 54], the IC50 is 60.6 µM in assay [1] (setting [7]) and 0.088 µM in assay [2]. For the same molecule, the MIC is above 128 µg/mL in assay [3], 64 µg/mL in assay [4], 64 µg/mL (≈ 125 µM) in assay [5] and above 128 µg/mL in assay [6].

The record behind these values is US9944654B2, “Nargenicin compounds and uses thereof as antibacterial agents” (priority 2014, dated 2018).
